US20150209313A1 (priority 2014, published 2015)
“Also recorded” adds a separate entry of the source. Like-named read-outs stand apart in the source and are kept apart here.

How the values were obtained:
[1] = target: neuraminidase, Influenza Virus A/California/07/2009 H1N1 (Oseltamivir sensitive) (Influenza A virus (A/California/07/2009(H1N1)), UniProt C3W6G3); type: biochemical
[2] = test system: Influenza Virus A/California/07/2009 H1N1; type: cell-based
[3] = test system: Influenza Virus A/Maryland/04/2011 H1N1; type: cell-based

Structure (SMILES): CCOC(=O)C1=C[C@@H](OC(CC)CC)[C@H](NC(C)=O)[C@@H](N)C1 [Oseltamivir]
- Average Fluorescence ([1]; 0.005 nM): 66385.00
- Average Fluorescence ([1]; 0.05 nM): 56340.00
- Average Fluorescence ([1]; 0.5 nM): 32060.00
- Average Fluorescence ([1]; 5 nM): 7802.00
- Average Fluorescence ([1]; 50 nM): 1215.00
- Average Fluorescence ([1]; 500 nM): 354.00
- Average Fluorescence ([1]; 5,000 nM): 179.00
- Average Fluorescence ([1]; 50,000 nM): 365.00
- plaque inhibitory effect (in words) [2]: sensitive to this drug to 1 μM; also recorded: inhibitory effects
- plaque inhibitory effect (in words) [3]: only partially sensitive; also recorded: reduced oseltamivir susceptibility
